Values joined by “and” are separate entries in the source; they are usually repeats but may differ in a detail not shown here. Identical values can stand only once. Blank lines part the entries; values can stand above or below the compound they belong to. Where a SMILES comes first, the peptide text is derived from it. [ ]: non-standard residue; d: D form. NMeL = CN[C@@H](CC(C)C)C(=O)O; dNMeL = CN[C@H](CC(C)C)C(=O)O; NMeV = CN[C@H](C(=O)O)C(C)C; NMeA = CN[C@@H](C)C(=O)O; dNMeA = CN[C@H](C)C(=O)O
Assays:
[1] = PAMPA, PAMPA_Papp_Avg (apparent permeability)
[2] = Pharmacokinetics of D10.1 after PO, SQ and IV dosing in mice
[3] = PAMPA
[4] = PO 12.2 mg/kg, individual mice, 12.2 mg/kg
[5] = female, Balb/C, mouse, plasma, po, 12.2 mg/kg
[6] = female, Balb/C, mouse, plasma, sc, 12.2 mg/kg

Papp [1]: 3.47 ×10⁻⁶ cm/s
Structure (SMILES): CC(C)[C@@H]1C(=O)N[C@@H](Cc2ccccc2)C(=O)N2CCC[C@H]2C(=O)N(C)[C@H](Cc2ccccc2)C(=O)N[C@H](C)C(=O)N2CCC[C@H]2C(=O)N1C (single isomer, unassigned) [Design D6.8.p1, *faP*vFP]

Papp [1]: 5.29 ×10⁻⁶ cm/s
Structure (SMILES): CC(C)C[C@H]1C(=O)N2CCC[C@@H]2C(=O)N[C@@H](Cc2ccccc2)C(=O)N2CCC[C@H]2C(=O)N[C@H](C(C)C)C(=O)N[C@H](Cc2ccccc2)C(=O)N1C (single isomer, unassigned) [Design D6.9.p1, vf*LpFP]

Papp [1]: 9.06 ×10⁻⁶ cm/s
Structure (SMILES): CC(C)C[C@H]1NC(=O)[C@H]2CCCN2C(=O)[C@@H]2CCCN2C(=O)[C@@H](Cc2ccccc2)NC(=O)[C@@H](C(C)C)NC(=O)[C@H](CC(C)C)N(C)C(=O)[C@@H](Cc2ccccc2)NC1=O (single isomer, unassigned) [Design D7.7.p2, Pplf*Lvf]

Papp [1]: 3.92 ×10⁻⁶ cm/s
Structure (SMILES): CC[C@H](C)[C@@H]1NC(=O)[C@@H](CC(C)C)NC(=O)[C@H](CC(C)C)N(C)C(=O)[C@H](Cc2ccccc2)NC(=O)CN(C)C(=O)[C@@H]2CCCN2C(=O)[C@H](C(C)C)NC(=O)[C@H](Cc2ccccc2)N(C)C(=O)[C@H]2CCCN2C(=O)[C@H](CC(C)C)NC1=O (single isomer, unassigned) [Design D10.1.p1, lILp*FVP*GF*L]

Papp [1]: 0.95 ×10⁻⁶ cm/s
Structure (SMILES): CC[C@H](C)[C@@H]1NC(=O)[C@@H](C)N(C)C(=O)[C@H]2CCCN2C(=O)[C@H]2CCCN2C(=O)[C@H](Cc2ccccc2)NC(=O)[C@@H](CC(C)C)NC(=O)[C@@H](CC(C)C)N(C)C(=O)[C@@H]2CCCN2C1=O [Design D8.17, P*llFpp*aI] (cyclo(F[dP][dP][dNMeA]IP[dNMeL][dL]))

Papp [1]: 0.626 ×10⁻⁶ cm/s
Structure (SMILES): CC(C)C[C@H]1NC(=O)[C@H]2CCCN2C(=O)[C@H](CC(C)C)N(C)C(=O)[C@@H](C)N(C)C(=O)[C@@H](Cc2ccccc2)NC(=O)[C@@H](C(C)C)NC(=O)[C@H]2CCCN2C(=O)[C@@H](CC(C)C)NC1=O [Design D8.19, f*a*Lpllpv] (cyclo([NMeL][dP][dL][dL][dP][dV][dF][dNMeA]))

Half-life T1/2 ([2]; IV ([…] per Table 12), mean ±): 1.123 ± 0.113 h | Volume of distribution @ steady state VSS ([2]; IV ([…] per Table 12), mean ±): 0.25 ± 0.08 L/kg | Volume of distribution during elimination phase VZ ([2]; IV ([…] per Table 12), mean ±): 0.32 ± 0.07 L/kg | Plasma level ([2]; PO 12.2 mg/kg, 15 min, AVG): 2.58 µM | Plasma level ([2]; PO 12.2 mg/kg, 15 min, individual mice, 12.2 mg/kg): 2.22 µM and 3.26 µM and 2.26 µM | Plasma level ([2]; PO 12.2 mg/kg, 30 min, AVG): 2.92 µM | Plasma level ([2]; PO 12.2 mg/kg, 30 min, individual mice, 12.2 mg/kg): 2.49 µM and 3.64 µM and 2.64 µM | Plasma level ([2]; PO 12.2 mg/kg, 60 min, AVG): 1.78 µM | Plasma level ([2]; PO 12.2 mg/kg, 60 min, individual mice, 12.2 mg/kg): 1.57 µM and 2.14 µM and 1.64 µM | Plasma level ([2]; PO 12.2 mg/kg, 120 min, AVG): 0.72 µM | Plasma level ([2]; PO 12.2 mg/kg, 120 min, individual mice, 12.2 mg/kg): 0.54 µM and 0.8 µM and 0.81 µM | Plasma level ([2]; PO 12.2 mg/kg, 240 min, AVG): 0.16 µM | Plasma level ([2]; PO 12.2 mg/kg, 240 min, individual mice, 12.2 mg/kg): 0.13 µM and 0.18 µM and 0.17 µM | Plasma level ([2]; PO 12.2 mg/kg, 360 min, AVG): 0.07 µM | Plasma level ([2]; PO 12.2 mg/kg, 360 min, individual mice, 12.2 mg/kg): 0 μM and 0.1 μM (2×) | Plasma level ([2]; PO 12.2 mg/kg, 1440 min, AVG): 0 µM | Plasma level ([2]; PO 12.2 mg/kg, 1440 min, individual mice): 0 µM | AUC0-t ([2]; PO 12.2 mg/kg, AVG): 270.4 µmol·min/L | AUC0-∞ ([2]; PO 12.2 mg/kg, AVG): 279.94 µmol·min/L | CI/F ([2]; PO 12.2 mg/kg, AVG): 0.000785 L/min | Cmax ([2]; PO 12.2 mg/kg, AVG): 2920 nM | Tmax ([2]; PO 12.2 mg/kg, individual mice): 0.5 h | Cmax [2, 4]: 2490 nM and 3640 nM and 2640 nM | T1/2 [2, 4]: 0.8313 h and 1.051 h and 1.132 h | Apparent clearance CI/F ([2]; PO (12.2 mg/kg per Table 10), mean): 0.000785 L/min | Half-life T1/2 ([2]; PO (12.2 mg/kg per Table 10), mean ±): 1.005 ± 0.156 h | Oral bioavailability F ([2]; PO, IV dosing as reference, mean ±): 7.48 ± 1.79% | Plasma level ([2]; SQ 12.2 mg/kg, 15 min, AVG): 2.53 µM | Plasma level ([2]; SQ 12.2 mg/kg, 15 min, individual mice): 1.39 µM and 2.44 µM and 3.75 µM | Plasma level ([2]; SQ 12.2 mg/kg, 30 min, AVG): 3.55 µM | Plasma level ([2]; SQ 12.2 mg/kg, 30 min, individual mice): 1.81 µM and 3.69 µM and 5.15 µM | Plasma level ([2]; SQ 12.2 mg/kg, 60 min, AVG): 3.93 µM | Plasma level ([2]; SQ 12.2 mg/kg, 60 min, individual mice): 1.87 µM and 4.88 µM and 5.03 µM | Plasma level ([2]; SQ 12.2 mg/kg, 360 min, AVG): 2.29 µM | Plasma level ([2]; SQ 12.2 mg/kg, 360 min, individual mice): 2.4 µM and 2.19 µM | Plasma level ([2]; SQ 12.2 mg/kg, 1440 min, AVG): 0.01 µM | Plasma level ([2]; SQ 12.2 mg/kg, 1440 min, individual mice): 0 μM (2×) and 0.03 μM | AUC0-t ([2]; SQ 12.2 mg/kg, AVG): 1879.54 µmol·min/L | AUC0-∞ ([2]; SQ 12.2 mg/kg, AVG): 2867.17 µmol·min/L | CI/F ([2]; SQ 12.2 mg/kg, AVG): 7.96e-05 L/min | Cmax ([2]; SQ 12.2 mg/kg, AVG): 4140 nM | T1/2 ([2]; SQ 12.2 mg/kg, AVG): 3.7563 h | Tmax ([2]; SQ 12.2 mg/kg, AVG): 2.5 h | CI/F ([2]; SQ 12.2 mg/kg, individual mice): 5.97e-05 L/min and 9.96e-05 L/min | Cmax ([2]; SQ 12.2 mg/kg, individual mice): 2400 nM and 4880 nM and 5150 nM | T1/2 ([2]; SQ 12.2 mg/kg, individual mice): 3.1823 h and 4.3302 h | level at time molar at 0.25 h [2, 5]: 2580 ± 590 nM | level at time molar at 0.5 h [2, 5]: 2920 ± 630 nM | level at time molar at 1 h [2, 5]: 1780 ± 310 nM | level at time molar at 2 h [2, 5]: 720 ± 150 nM | level at time molar at 4 h [2, 5]: 160 ± 30 nM | level at time molar at 6 h [2, 5]: 70 ± 60 nM | CL/F [2, 6]: 0.0796 mL/min | level at time molar at 0.25 h [2, 6]: 2530 ± 1180 nM | level at time molar at 0.5 h [2, 6]: 3550 ± 1670 nM | level at time molar at 1 h [2, 6]: 3930 ± 1780 nM | level at time molar at 6 h [2, 6]: 2290 ± 150 nM | level at time molar at 24 h [2, 6]: 10 ± 20 nM | bioavailability ([2]; mouse, in vivo): 7.5 to 11% | Cmax ([2]; mouse, in vivo, sc, 12.2 mg/kg): 4140 ± 1510 nM | Tmax ([2]; mouse, in vivo, sc, 12.2 mg/kg): 2.5 h | half-life ([2]; mouse, in vivo, sc, 12.2 mg/kg): 3.76 ± 0.812 h
Structure (SMILES): CC[C@H](C)[C@@H]1NC(=O)[C@@H](CC(C)C)NC(=O)[C@H](CC(C)C)N(C)C(=O)[C@H](Cc2ccccc2)NC(=O)CN(C)C(=O)[C@@H]2CCCN2C(=O)[C@H](C(C)C)NC(=O)[C@H](Cc2ccccc2)N(C)C(=O)[C@H]2CCCN2C(=O)[C@H](CC(C)C)NC1=O [Design D10.1, lILp*FVP*GF*L]
AUC0-t [2, 4]: 216.96 µmol·min/L and 327.78 µmol·min/L and 266.45 µmol·min/L | AUC0-∞ [2, 4]: 226.62 µmol·min/L and 337.03 µmol·min/L and 276.18 µmol·min/L | CI/F [2, 4]: 0.000944 L/min and 0.000635 L/min and 0.000775 L/min | AUC0-t ([2]; SQ 12.2 mg/kg, individual mice): 730.93 µmol·min/L and 3578.6 µmol·min/L and 1329.09 µmol·min/L | AUC0-∞ ([2]; SQ 12.2 mg/kg, individual mice): 3585.94 µmol·min/L and 2148.41 µmol·min/L

More lines, now with the values behind:

Structure (SMILES): CC[C@H](C)[C@@H]1NC(=O)[C@H](Cc2ccccc2)NC(=O)[C@H]2CCCN2C(=O)[C@H]([C@@H](C)CC)NC(=O)[C@H](C(C)C)NC(=O)[C@@H](C)NC(=O)[C@H]2CCCN2C1=O (single isomer, unassigned) [Design D7.8.p2, VIpFIpa]
Papp [1]: 4.92 ×10⁻⁶ cm/s

Structure (SMILES): CC(C)C[C@@H]1NC(=O)[C@@H](C(C)C)NC(=O)[C@H](CC(C)C)N(C)C(=O)[C@H]2CCCN2C(=O)[C@@H](C(C)C)NC(=O)[C@H]2CCCN2C(=O)[C@@H](C(C)C)NC(=O)[C@@H](Cc2ccccc2)N(C)C(=O)[C@H](CC(C)C)N(C)C1=O (single isomer, unassigned) [Design D9.8.p2, *LvL*L*fvpvp]
Papp [1]: 0.255 ×10⁻⁶ cm/s

Structure (SMILES): CC(C)C[C@@H]1NC(=O)[C@H](Cc2ccccc2)NC(=O)[C@@H](CC(C)C)NC(=O)[C@H]2CCCN2C(=O)[C@H](C(C)C)NC(=O)[C@@H](CC(C)C)NC(=O)[C@H]2CCCN2C(=O)[C@@H]2CCCN2C1=O [Design D8.5, FLPplVpl] (cyclo(FLP[dP][dL]V[dP][dL]))
Papp [1]: 6.31 ×10⁻⁶ cm/s

Structure (SMILES): CC[C@H](C)[C@@H]1NC(=O)[C@H]2CCCN2C(=O)[C@@H]2CCCN2C(=O)[C@@H](C(C)C)NC(=O)[C@@H](C)N(C)C(=O)[C@H](C)N(C)C(=O)[C@@H](CC(C)C)N(C)C(=O)[C@@H](C(C)C)NC1=O [Design D8.26, v*l*A*avPpI] (cyclo(I[dV][dNMeL][NMeA][dNMeA][dV]P[dP]))
Papp [1]: 0.544 ×10⁻⁶ cm/s

Structure (SMILES): CC[C@H](C)[C@@H]1NC(=O)[C@H](C(C)C)N(C)C(=O)[C@H]2CCCN2C(=O)[C@H]([C@@H](C)CC)NC(=O)[C@@H](CC(C)C)N(C)C(=O)[C@@H](C)NC(=O)[C@@H]2CCCN2C(=O)[C@H]2CCCN2C(=O)[C@H](CC(C)C)NC(=O)[C@@H](Cc2ccccc2)NC(=O)[C@H](CC(C)C)NC(=O)[C@H]2CCCN2C1=O [Design D12.3, p*VIpLfLpPa*lI] (cyclo([dA][dNMeL]I[dP][NMeV]I[dP]L[dF]L[dP]P))
PAMPA_Papp_Avg (apparent permeability) [3]: 0.789 ×10⁻⁶ cm/s

Structure (SMILES): CC(C)C[C@@H]1NC(=O)[C@@H](CC(C)C)N(C)C(=O)[C@@H](CC(C)C)N(C)C(=O)[C@@H](CC(C)C)N(C)C(=O)[C@H](CC(C)C)NC(=O)[C@@H]2CCCN2C(=O)[C@H]2CCCN2C(=O)[C@H](Cc2ccccc2)NC1=O [SEQ ID NO 47, FpPL*l*l*lL] (cyclo(L[dNMeL][dNMeL][dNMeL]LF[dP]P))
PAMPA_Papp_Avg (apparent permeability) [3]: 1.27 ×10⁻⁶ cm/s
